Test results reported in patent US20260209152A1, “Substituted Hydroxystilbene Compounds and Derivatives, Synthesis and Uses Thereof” (Kynan Duke IP, LLC, priority 2019, published 2026).
“And” between values parts separate entries of the source, which are not always exact repeats. Equal entries are not always repeated. “Also recorded” adds a separate entry of the source. Where two headings read alike, the source gives them in different places.

Key:
Kidney CRL-1611 = assay: CellTiter Glo cell viability assay; assay type: cell-based; settings: Homo sapiens, 72 h
Procedure, shortened: (§1)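 Cells seeded at 1.7*10^3/well in quadruplicate; compounds at 18 two-fold dilutions from 5 μM (0.000038146-5 μM), or at 1, 2, 5, 10 and 20 μM. CellTiter Glo luminescence read on days 1, 3 and 5 after treatment. IC50 by nonlinear regression of luminescence versus log dose.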

[1] = tested on: melanoma B16F10 xenografted in BALB/c mice; assay: B16F10 xenografted mice: tumor volume and histopathology; assay type: in vivo
Protocol: (§2) B16F10 cells (25×10^5 cells/mouse) were injected subcutaneously into the right flank of female BALB/c mice aged 7-8 weeks. Mice (n=10) were divided into 2 groups and given daily oral suspension of 27 (treated group), or vehicle (control group) for 15 days. The treated group was orally given a suspension of 27 at 900 mg/kg. The control group was given the vehicle suspension (SEDDS). Measurements performed on days 0, 9 and 15 only. Tissues (plasma, tumor, liver, spleen and brain) were harvested within 3 hours of final treatment. Biopsies of tumor tissues for histopathology were obtained subsequently.
Tissue samples from the tumors of both treated and control mice were fixed with formalin. Histopathological examination of these tumor samples was performed by Lore Laboratory, CA, USA.

BALB/c mice = assay: Effect of oral administration on animal wellbeing in B16F10 xenografted mice; assay type: in vivo; settings: 900 mg/kg oral daily for 15 days
Protocol: • Observe and assess the effect of oral administration of 27 on animal wellbeing. • Quantify levels of 27 in tissues (plasma, tumor, liver, spleen and brain) to assess the compound bioaccumulation and distribution.
as §2

Rhabomyosarcoma SJCRH30 = assay: CellTiter Glo cell viability assay; assay type: cell-based, human
Procedure, shortened: as §1

Liver JHH-5 = assay: CellTiter Glo cell viability assay; assay type: cell-based; settings: Homo sapiens, 72 h; 3 Days of treatment; 18 2-fold dilutions 5-0.00003 μM
Procedure, shortened: as §1

[2] = 900 mg/kg oral daily, individual treated mice

COc1cc(/C=C/c2cc(O)cc(OC)c2CC=C(C)C)ccc1O [Compound 1, (E)-3-(4-hydroxy-3-methoxystyryl)-5-methoxy-4-(3-methylbut-2-en-1-yl)phenol]
IC50 (Kidney CRL-1611; 3 Days of treatment, 18 2-fold dilutions 5-0.00003 μM, read-out: Average IC50): 0.0937 µM
IC50 (Kidney CRL-1611; Day 3 upon drug treatment, 10 dosages 0.0001-20 μM, read-out: IC50): 0.0937 µM

COc1cc(/C=C/c2cc(O)cc(OC)c2CC=C(C)C)ccc1NC=O [Compound 27, (E)-N-(4-(5-hydroxy-3-methoxy-2-(3-methylbut-2-en-1-yl)styryl)-2-methoxyphenyl)formamide]
Histochemical analysis of tumor samples, in words ([1]; 900 mg/kg oral daily for 15 days): tumors were subsequently diminished after day 10; also recorded: lysed and/or underwent necrosis
Tumor volume Day 0 [1, 2]: 109.29 mm^3 and 52.18 mm^3 and 58.45 mm^3 and 82.97 mm^3 and 66.82 mm^3
Tumor volume Day 9 [1, 2]: 132.59 mm^3 and 178.68 mm^3 and 37.38 mm^3 and 60.93 mm^3 and 47.3 mm^3
Tumor volume Day 15 [1, 2]: 5.31 mm^3 and 19.93 mm^3 and 35.03 mm^3 and 42.35 mm^3 and 39.44 mm^3
Signs of toxic effect (BALB/c mice): no signs of toxic effect; also recorded: low toxicity when given orally

CCOc1cc(O)cc(/C=C/c2ccc(O)c(OC)c2)c1CC=C(C)C [Compound 8, (E)-3-Ethoxy-5-(4-hydroxy-3-methoxystyryl)-4-(3-methylbut-2-en-1-yl)phenol]
IC50 (Rhabomyosarcoma SJCRH30; Homo sapiens, 72 h, 3 Days of treatment, 18 2-fold dilutions 5-0.00003 μM): 0.0434 µM
Fold IC50 (Rhabomyosarcoma SJCRH30; IC50 of 1 [KYN-001] vs 8 [KYN-119], 3 Days): 1.9
IC50 (Liver JHH-5): 4.37 µM
